Measured values from patent publication US7932031B2, “Methods for determining sensitivity to microtubule-stabilizing agents comprising ixabepilone by measuring the level of estrogen receptor 1” (Bristol-Myers Squibb Company, priority 2004, dated 2011).

Test system: invasive stage IIA-IIIB breast adenocarcinoma
Assay: CA163-080 exploratory genomic phase II study, ixabepilone as neoadjuvant treatment, pathologic complete response (Sataloff classification)
Format: in vivo, human
Details: breast cancer patients, 40 mg/m^2 3-hour infusion on Day 1, up to four 21-day cycles
Procedure: CA163-080 is an exploratory genomic phase II study that was conducted in breast cancer patients who received ixabepilone as a neoadjuvant treatment. The primary objective of this study was to identify predictive markers of response to ixabepilone through gene expression profiling of pre-treatment breast cancer biopsies. Patients with invasive stage IIA-IIIB breast adenocarcinoma (tumor size≧3 cm diameter) received 40 mg/m^2 ixabepilone as a 3-hour infusion on Day 1 for up to four 21-day cycles, followed by surgery within 3-4 weeks of completion of chemotherapy. A total of 164 patients were enrolled in this study. Biopsies for gene expression analysis were obtained both pre- and post-treatment. […]
Pathological response was assessed using the Sataloff classification system (D. Sataloff et al., J. Am. Coll. Surg., 180(3):297-306 (1995)) and used as an end point for the pharmacogenomic analysis. The pathologic response was evaluated in the primary tumor site at the end of treatment and prior to surgery by assessing histologic changes compared with baseline as following: At the primary tumor site, cellular modifications were evaluated in both the infiltrating tumoral component and in the possible ductal component, to determine viable residual infiltrating component (% of total tumoral mass); residual ductal component (% of total tumoral mass); the mitotic index. […]

Compound C/C(=C\c1csc(C)n1)[C@@H]1C[C@@H]2O[C@]2(C)CCC[C@H](C)[C@H](O)[C@@H](C)C(=O)C(C)(C)[C@@H](O)CC(=O)N1 [ixabepilone] has a pCR response rate (the other sites (excluding Russian sites 16, 24 and 25)) of 19.8% and a pCR response rate (tumors from the three Russian sites (16, 24 and 25)) of 17.2%.
